Reference: patent publication US7138361B2, “Herbicidal heterocycles” (E. I. du Pont de Nemours and Company, priority 2000, dated 2006)

Legend:
Type in all cases: in vivo
[1] = test system: Surinam grass (Brachiaria decumbens); assay: Test B postemergence; conditions: 13 to 15 days
Source text: (§1) Seeds selected from barnyardgrass (Echinochloa crus-galli), Surinam grass (Brachiaria decumbens), cocklebur (Xanthium strumarium), corn (Zea mays), crabgrass (Digitaria sanguinalis), giant foxtail (Setaria faberii), lambsquarters (Chenopodium album), morning glory (Ipomoea hederacea), pigweed (Amaranthus retroflexus), rice (Oryza saliva) and velvetleaf (Abutilon theophrasti) were planted and treated preemergence with test chemicals formulated in a non-phytotoxic solvent mixture which included a surfactant.
(§2) At the same time, plants selected from these crop and weed species and also blackgrass (Alopecurus myosuroides), wheat (Triticum aestivum) and wild oat (Avena fatua) were treated with postemergence applications of test chemicals formulated in the same manner. Plants ranged in height from 2 to 18 cm (1- to 4-leaf stage) for postemergence treatments. Plant species in the flooded paddy test consisted of rice (Oryza saliva), smallflower flatsedge (Cyperus difformis), duck salad (Heteranthera limosa) and barnyardgrass (Echinochloa crus-galli) grown to the 2-leaf stage for testing. Treated plants and controls were maintained in a greenhouse for 13 to 15 days, after which time all species were compared to controls and visually evaluated. Plant response ratings, summarized in Table B, are based on a scale of 0 to 100 where 0 is no effect and 100 is complete control. A dash (-) response means no test result.

[2] = test system: barnyardgrass (Echinochloa crus-galli); assay: Test B postemergence; conditions: 13 to 15 days
Source text: as §1, §2

[3] = test system: blackgrass (Alopecurus myosuroides); assay: Test B postemergence; conditions: 13 to 15 days
Source text: as §1, §2

[4] = test system: corn (Zea mays); assay: Test B postemergence; conditions: 13 to 15 days
Source text: as §1, §2

[5] = test system: crabgrass (Digitaria sanguinalis); assay: Test B postemergence; conditions: 13 to 15 days
Source text: as §1, §2

[6] = test system: giant foxtail (Setaria faberii); assay: Test B postemergence; conditions: 13 to 15 days
Source text: as §1, §2

[7] = test system: lambsquarters (Chenopodium album); assay: Test B postemergence; conditions: Rate 500 g/ha, scale 0 to 100, 0 is no effect, 100 is complete control, 13 to 15 days
Source text: as §1, §2

[8] = test system: morning glory (Ipomoea hederacea); assay: Test B postemergence; conditions: Rate 500 g/ha, scale 0 to 100, 0 is no effect, 100 is complete control, 13 to 15 days
Source text: as §1, §2

[9] = test system: pigweed (Amaranthus retroflexus); assay: Test B postemergence; conditions: Rate 500 g/ha, scale 0 to 100, 0 is no effect, 100 is complete control, 13 to 15 days
Source text: as §1, §2

[10] = test system: velvetleaf (Abutilon theophrasti); assay: Test B postemergence; conditions: Rate 500 g/ha, scale 0 to 100, 0 is no effect, 100 is complete control, 13 to 15 days
Source text: as §1, §2

[11] = test system: wheat (Triticum aestivum); assay: Test B postemergence; conditions: Rate 500 g/ha, scale 0 to 100, 0 is no effect, 100 is complete control, 13 to 15 days
Source text: as §1, §2

[12] = test system: wild oat (Avena fatua); assay: Test B postemergence; conditions: Rate 500 g/ha, scale 0 to 100, 0 is no effect, 100 is complete control, 13 to 15 days
Source text: as §1, §2

[13] = test system: Surinam grass (Brachiaria decumbens); assay: Test B preemergence
Source text: as §1, §2

[14] = test system: barnyardgrass (Echinochloa crus-galli); assay: Test B preemergence
Source text: as §1, §2

[15] = test system: cocklebur (Xanthium strumarium); assay: Test B preemergence
Source text: as §1, §2

[16] = test system: corn (Zea mays); assay: Test B preemergence
Source text: as §1, §2

[17] = test system: crabgrass (Digitaria sanguinalis); assay: Test B preemergence
Source text: as §1, §2

[18] = test system: giant foxtail (Setaria faberii); assay: Test B preemergence
Source text: as §1, §2

[19] = test system: lambsquarters (Chenopodium album); assay: Test B preemergence
Source text: as §1, §2

[20] = test system: morning glory (Ipomoea hederacea); assay: Test B preemergence
Source text: as §1, §2

[21] = test system: pigweed (Amaranthus retroflexus); assay: Test B preemergence
Source text: as §1, §2

[22] = test system: rice (Oryza saliva); assay: Test B preemergence
Source text: as §1, §2

[23] = test system: velvetleaf (Abutilon theophrasti); assay: Test B preemergence
Source text: as §1, §2

[24] = test system: barnyardgrass (Echinochloa crus-galli); assay: Test C flooded paddy test; conditions: for Barnyardgrass plant response rating: Flooded Paddy, scale 0 to 100, 0 no effect, 100 complete control; for Plant response rating, Barnyardgrass: flooded paddy test, scale 0 to 100 (0 no effect, 100 complete control)
Procedure: (§3) At the same time, plants selected from these crop and weed species and also winter barley (Hordeum vulgare), blackgrass (Alopecurus myosuroides), canary grass (Phalaris minor), chickweed (Stellaria media), downy brome (Bromus tectorum), green foxtail (Setaria viridis), Italian ryegrass (Lolium multiflorum), wheat (Triticum aestivum), wild oat (Avena fatua) and windgrass (Apera spica-venti) were treated with postemergence applications of some of the test chemicals formulated in the same manner. Plants ranged in height from 2 to 18 cm (1- to 4-leaf stage) for postemergence treatments. Plant species in the flooded paddy test consisted of rice (Oryza saliva), smallflower flatsedge (Cyperus difformis), duck salad (Heteranthera limosa) and barnyardgrass (Echinochloa crus-galli) grown to the 2-leaf stage for testing. Treated plants and controls were maintained in a greenhouse for 12 to 14 days, after which time all species were compared to controls and visually evaluated. Plant response ratings, summarized in Table C, are based on a scale of 0 to 100 where 0 is no effect and 100 is complete control. A dash (-) response means no test result.

[25] = test system: duck salad (Heteranthera limosa); assay: Test C flooded paddy test; conditions: for Ducksalad plant response rating: Flooded Paddy, scale 0 to 100, 0 no effect, 100 complete control; for Plant response rating, Ducksalad: flooded paddy test, scale 0 to 100 (0 no effect, 100 complete control)
Procedure: as §3

[26] = test system: rice (Oryza saliva); assay: Test C flooded paddy test; conditions: for Rice plant response rating: Flooded Paddy, scale 0 to 100, 0 no effect, 100 complete control; for Plant response rating, Rice: flooded paddy test, scale 0 to 100 (0 no effect, 100 complete control)
Procedure: as §3

[27] = test system: smallflower flatsedge (Cyperus difformis); assay: Test C flooded paddy test; conditions: for Flatsedge plant response rating: Flooded Paddy, scale 0 to 100, 0 no effect, 100 complete control; for Plant response rating, Flatsedge: flooded paddy test, scale 0 to 100 (0 no effect, 100 complete control)
Procedure: as §3

[28] = Rate 125 g/ha, scale 0 (no effect) to 100 (complete control)
[29] = Rate 500 g/ha, scale 0 to 100, 0 is no effect, 100 is complete control
[30] = Preemergence, Rate 500 g/ha, scale 0 to 100, 0 no effect, 100 complete control
[31] = preemergence, Rate 125 g/ha, scale of 0 to 100 where 0 is no effect and 100 is complete control, 13 to 15 days

CC(C)(C)c1ccn(C2CCN(c3cccc(S(C)(=O)=O)c3)C2=O)n1 (stereo not shown) [Compound 102]
Plant response rating, Surinam grass [1, 28]: 0 | Plant response rating, Surinam grass [1, 29]: 0 | Plant response rating, Barnyardgrass [2, 28]: 0 | Plant response rating, Barnyardgrass [2, 29]: 0 | Plant response rating, Blackgrass [3, 28]: 0 | Plant response rating, Blackgrass [3, 29]: 0 | Plant response rating, Corn [4, 28]: 0 | Plant response rating, Corn [4, 29]: 0 | Plant response rating, Crabgrass [5, 28]: 0 | Plant response rating, Crabgrass [5, 29]: 0 | Plant response rating, Foxtail, Giant [6, 28]: 0 | Plant response rating, Foxtail, Giant [6, 29]: 0 | Plant response rating, Lambsquarters [7]: 0 | Plant response rating, Morningglory [8]: 0 | Plant response rating, Pigweed [9]: 0 | Plant response rating, Velvetleaf [10]: 0 | Plant response rating, Wheat [11]: 0 | Plant response rating, Wild Oat [12]: 0 | Plant response rating, Surinam grass [13, 30]: 0 | Plant response rating, Surinam grass [13, 31]: 0 | Plant response rating, Barnyardgrass [14, 30]: 0 | Plant response rating, Barnyardgrass [14, 31]: 0 | Plant response rating, Cocklebur [15, 30]: 0 | Plant response rating, Cocklebur [15, 31]: 0 | Plant response rating, Corn [16, 30]: 0 | Plant response rating, Corn [16, 31]: 0 | Plant response rating, Crabgrass [17, 30]: 90 | Plant response rating, Crabgrass [17, 31]: 0 | Plant response rating, Foxtail, Giant [18, 30]: 0 | Plant response rating, Foxtail, Giant [18, 31]: 0 | Plant response rating, Lambsquarters [19, 30]: 0 | Plant response rating, Lambsquarters [19, 31]: 0 | Plant response rating, Morningglory [20, 30]: 0 | Plant response rating, Morningglory [20, 31]: 0 | Plant response rating, Pigweed [21, 30]: 0 | Plant response rating, Pigweed [21, 31]: 0 | Plant response rating, Rice [22, 30]: 0 | Plant response rating, Rice [22, 31]: 0 | Plant response rating, Velvetleaf [23, 30]: 0 | Plant response rating, Velvetleaf [23, 31]: 0 | Barnyardgrass plant response rating ([24]; Rate 250 g/ha): 0 | Barnyardgrass plant response rating ([24]; Rate 500 g/ha): 0 | Plant response rating, Barnyardgrass ([24]; Rate 62 g/ha): 0 | Plant response rating, Barnyardgrass ([24]; Rate 125 g/ha): 0 | Ducksalad plant response rating ([25]; Rate 250 g/ha): 0 | Ducksalad plant response rating ([25]; Rate 500 g/ha): 0 | Plant response rating, Ducksalad ([25]; Rate 62 g/ha): 0 | Plant response rating, Ducksalad ([25]; Rate 125 g/ha): 0 | Rice plant response rating ([26]; Rate 250 g/ha): 0 | Rice plant response rating ([26]; Rate 500 g/ha): 0 | Plant response rating, Rice ([26]; Rate 62 g/ha): 0 | Plant response rating, Rice ([26]; Rate 125 g/ha): 0 | Flatsedge plant response rating ([27]; Rate 250 g/ha): 30 | Flatsedge plant response rating ([27]; Rate 500 g/ha): 60 | Plant response rating, Flatsedge ([27]; Rate 62 g/ha): 0 | Plant response rating, Flatsedge ([27]; Rate 125 g/ha): 30

CC(C)(C)c1ccn(C2CCN(c3cccc(C#N)c3)C2=O)n1 (stereo not shown) [Compound 104]
Plant response rating, Surinam grass [1, 28]: 0 | Plant response rating, Surinam grass [1, 29]: 0 | Plant response rating, Barnyardgrass [2, 28]: 0 | Plant response rating, Barnyardgrass [2, 29]: 0 | Plant response rating, Blackgrass [3, 28]: 0 | Plant response rating, Blackgrass [3, 29]: 0 | Plant response rating, Corn [4, 28]: 0 | Plant response rating, Corn [4, 29]: 0 | Plant response rating, Crabgrass [5, 28]: 0 | Plant response rating, Crabgrass [5, 29]: 0 | Plant response rating, Foxtail, Giant [6, 28]: 0 | Plant response rating, Foxtail, Giant [6, 29]: 0 | Plant response rating, Lambsquarters [7]: 0 | Plant response rating, Morningglory [8]: 0 | Plant response rating, Pigweed [9]: 0 | Plant response rating, Velvetleaf [10]: 0 | Plant response rating, Wheat [11]: 0 | Plant response rating, Wild Oat [12]: 0 | Plant response rating, Surinam grass [13, 30]: 0 | Plant response rating, Surinam grass [13, 31]: 0 | Plant response rating, Barnyardgrass [14, 30]: 0 | Plant response rating, Barnyardgrass [14, 31]: 0 | Plant response rating, Cocklebur [15, 30]: 0 | Plant response rating, Cocklebur [15, 31]: 0 | Plant response rating, Corn [16, 30]: 0 | Plant response rating, Corn [16, 31]: 0 | Plant response rating, Crabgrass [17, 30]: 0 | Plant response rating, Crabgrass [17, 31]: 0 | Plant response rating, Foxtail, Giant [18, 30]: 0 | Plant response rating, Foxtail, Giant [18, 31]: 0 | Plant response rating, Lambsquarters [19, 30]: 100 | Plant response rating, Lambsquarters [19, 31]: 100 | Plant response rating, Morningglory [20, 30]: 0 | Plant response rating, Morningglory [20, 31]: 0 | Plant response rating, Pigweed [21, 30]: 100 | Plant response rating, Pigweed [21, 31]: 70 | Plant response rating, Rice [22, 30]: 0 | Plant response rating, Rice [22, 31]: 0 | Plant response rating, Velvetleaf [23, 30]: 0 | Plant response rating, Velvetleaf [23, 31]: 0 | Barnyardgrass plant response rating ([24]; Rate 250 g/ha): 0 | Barnyardgrass plant response rating ([24]; Rate 500 g/ha): 0 | Plant response rating, Barnyardgrass ([24]; Rate 62 g/ha): 0 | Plant response rating, Barnyardgrass ([24]; Rate 125 g/ha): 0 | Ducksalad plant response rating ([25]; Rate 250 g/ha): 0 | Ducksalad plant response rating ([25]; Rate 500 g/ha): 0 | Plant response rating, Ducksalad ([25]; Rate 62 g/ha): 0 | Plant response rating, Ducksalad ([25]; Rate 125 g/ha): 0 | Rice plant response rating ([26]; Rate 250 g/ha): 0 | Rice plant response rating ([26]; Rate 500 g/ha): 0 | Plant response rating, Rice ([26]; Rate 62 g/ha): 0 | Plant response rating, Rice ([26]; Rate 125 g/ha): 0 | Flatsedge plant response rating ([27]; Rate 250 g/ha): 0 | Flatsedge plant response rating ([27]; Rate 500 g/ha): 0 | Plant response rating, Flatsedge ([27]; Rate 62 g/ha): 0 | Plant response rating, Flatsedge ([27]; Rate 125 g/ha): 0
